Key:
lipoamide = compound: NC(=O)CCCCC1CCSS1 [lipoamide]; assay: thermal stability z-score vs DMSO; higher = more thermally stabilized by treatment; settings: HeLa, lipoamide concentration 100 µM
Method: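 Cellular thermal proteome profiling in HeLa cells. Cells were treated with 100 µM lipoamide for 1 h, with or without 1 mM arsenate for a further 1 h, then heated to ten temperatures (37-66.3 °C), and soluble protein was quantified by TMT mass spectrometry relative to 0.1% DMSO controls. The thermal stability score (sum of log2 fold changes minus the abundance score) was transformed to a z-score; mean of n = 3 experiments.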

potassium arsenate = compound: O=[As]([O-])(O)O.[K+] [potassium arsenate]; assay: as above; settings: HeLa; arsenate concentration 1 mM
Method: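 Cellular thermal proteome profiling in HeLa cells treated with 1 mM arsenate for 1 h (DMSO pretreatment), heated to ten temperatures (37-66.3 °C). Soluble protein was quantified by TMT mass spectrometry relative to DMSO controls; the thermal stability score was transformed to a z-score; mean of n = 3 experiments.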

[1] = arsenate co-treatment: 1 mM arsenate 1 h
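Further: each temperature applied for 3 min, abundance score taken as mean log2 fold change at the two lowest temperatures, z-score obtained by mean subtraction and division by SD.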

Chain of UniProt Q8N2K0 (Q8N2K0 whole entry): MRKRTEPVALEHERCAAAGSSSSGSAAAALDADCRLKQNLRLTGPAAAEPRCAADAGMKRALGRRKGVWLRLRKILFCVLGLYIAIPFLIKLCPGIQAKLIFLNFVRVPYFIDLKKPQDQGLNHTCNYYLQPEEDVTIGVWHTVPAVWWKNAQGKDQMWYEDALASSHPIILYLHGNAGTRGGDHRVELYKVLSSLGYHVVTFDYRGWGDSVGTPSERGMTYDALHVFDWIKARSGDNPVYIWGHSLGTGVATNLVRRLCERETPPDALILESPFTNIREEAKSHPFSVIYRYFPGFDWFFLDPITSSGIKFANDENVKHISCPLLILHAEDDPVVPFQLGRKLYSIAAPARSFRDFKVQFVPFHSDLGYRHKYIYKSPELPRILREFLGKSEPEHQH
Chain of UniProt Q9BUV8 (Q9BUV8 whole entry): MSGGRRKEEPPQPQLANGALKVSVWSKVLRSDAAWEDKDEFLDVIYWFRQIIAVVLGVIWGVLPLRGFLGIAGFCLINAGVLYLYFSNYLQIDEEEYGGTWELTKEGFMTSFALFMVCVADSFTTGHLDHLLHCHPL
Chain of UniProt Q96GA3 (Q96GA3 whole entry): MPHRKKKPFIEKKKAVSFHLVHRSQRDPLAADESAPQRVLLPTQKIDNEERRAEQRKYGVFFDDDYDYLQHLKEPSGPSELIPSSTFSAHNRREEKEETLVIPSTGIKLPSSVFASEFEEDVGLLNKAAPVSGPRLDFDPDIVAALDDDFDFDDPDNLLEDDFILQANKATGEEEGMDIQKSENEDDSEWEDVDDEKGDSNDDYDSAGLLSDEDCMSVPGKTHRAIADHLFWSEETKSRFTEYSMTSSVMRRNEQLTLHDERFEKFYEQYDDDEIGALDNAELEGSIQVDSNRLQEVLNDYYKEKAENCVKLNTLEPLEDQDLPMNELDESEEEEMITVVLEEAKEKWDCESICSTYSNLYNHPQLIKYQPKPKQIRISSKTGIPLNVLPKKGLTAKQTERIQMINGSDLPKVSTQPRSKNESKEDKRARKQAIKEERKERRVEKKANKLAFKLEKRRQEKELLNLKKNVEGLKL
Chain of UniProt O75147 (O75147 whole entry): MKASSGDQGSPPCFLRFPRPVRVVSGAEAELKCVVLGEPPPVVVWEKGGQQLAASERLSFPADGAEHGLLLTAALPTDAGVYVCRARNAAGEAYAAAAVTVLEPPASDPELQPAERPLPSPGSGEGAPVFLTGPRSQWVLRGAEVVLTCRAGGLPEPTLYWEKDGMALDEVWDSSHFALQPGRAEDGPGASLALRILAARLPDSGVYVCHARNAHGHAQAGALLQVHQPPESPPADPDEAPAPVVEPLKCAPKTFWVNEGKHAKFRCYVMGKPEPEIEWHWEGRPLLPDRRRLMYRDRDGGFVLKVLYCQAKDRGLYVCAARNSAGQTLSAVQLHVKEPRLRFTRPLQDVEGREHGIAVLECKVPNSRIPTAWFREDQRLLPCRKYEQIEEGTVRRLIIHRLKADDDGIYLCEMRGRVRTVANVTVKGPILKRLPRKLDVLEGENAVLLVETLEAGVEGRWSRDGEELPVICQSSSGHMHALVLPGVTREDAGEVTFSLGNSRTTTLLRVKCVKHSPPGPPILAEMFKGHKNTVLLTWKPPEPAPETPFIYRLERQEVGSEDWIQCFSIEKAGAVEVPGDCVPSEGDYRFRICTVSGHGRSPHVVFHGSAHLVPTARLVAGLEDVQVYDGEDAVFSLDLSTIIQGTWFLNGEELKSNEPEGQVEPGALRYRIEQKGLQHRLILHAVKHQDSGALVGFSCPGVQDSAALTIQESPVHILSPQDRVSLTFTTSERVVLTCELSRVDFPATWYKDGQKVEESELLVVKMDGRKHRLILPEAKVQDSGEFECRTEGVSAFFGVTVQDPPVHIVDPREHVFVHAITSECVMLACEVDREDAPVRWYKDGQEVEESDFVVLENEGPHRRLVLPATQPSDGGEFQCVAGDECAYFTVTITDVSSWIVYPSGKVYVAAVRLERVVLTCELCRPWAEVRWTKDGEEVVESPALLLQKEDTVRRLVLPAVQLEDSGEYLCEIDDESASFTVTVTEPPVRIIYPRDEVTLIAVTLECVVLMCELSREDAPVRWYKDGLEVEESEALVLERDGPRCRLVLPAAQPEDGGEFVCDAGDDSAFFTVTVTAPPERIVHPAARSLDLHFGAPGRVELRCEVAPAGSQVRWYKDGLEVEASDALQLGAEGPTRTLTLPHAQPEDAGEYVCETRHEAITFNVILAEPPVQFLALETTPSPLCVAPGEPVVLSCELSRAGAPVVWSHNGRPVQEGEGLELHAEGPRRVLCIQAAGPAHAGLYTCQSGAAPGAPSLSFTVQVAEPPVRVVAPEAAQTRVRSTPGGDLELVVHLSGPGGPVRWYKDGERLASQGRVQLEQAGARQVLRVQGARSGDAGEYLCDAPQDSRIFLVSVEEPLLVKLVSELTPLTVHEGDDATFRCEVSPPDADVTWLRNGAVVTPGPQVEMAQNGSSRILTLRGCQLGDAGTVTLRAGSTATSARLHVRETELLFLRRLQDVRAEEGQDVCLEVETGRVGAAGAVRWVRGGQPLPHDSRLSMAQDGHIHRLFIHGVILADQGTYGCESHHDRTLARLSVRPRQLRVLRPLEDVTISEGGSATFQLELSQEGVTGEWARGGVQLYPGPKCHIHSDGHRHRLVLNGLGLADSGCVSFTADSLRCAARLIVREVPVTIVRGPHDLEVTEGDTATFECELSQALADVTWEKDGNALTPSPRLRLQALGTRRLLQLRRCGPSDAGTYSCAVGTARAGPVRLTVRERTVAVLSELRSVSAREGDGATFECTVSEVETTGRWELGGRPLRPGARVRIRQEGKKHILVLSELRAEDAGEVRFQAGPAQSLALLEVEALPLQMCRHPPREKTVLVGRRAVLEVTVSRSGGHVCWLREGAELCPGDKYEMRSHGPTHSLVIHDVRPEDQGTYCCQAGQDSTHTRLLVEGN
Chain of UniProt Q96BW1 (Q96BW1 whole entry): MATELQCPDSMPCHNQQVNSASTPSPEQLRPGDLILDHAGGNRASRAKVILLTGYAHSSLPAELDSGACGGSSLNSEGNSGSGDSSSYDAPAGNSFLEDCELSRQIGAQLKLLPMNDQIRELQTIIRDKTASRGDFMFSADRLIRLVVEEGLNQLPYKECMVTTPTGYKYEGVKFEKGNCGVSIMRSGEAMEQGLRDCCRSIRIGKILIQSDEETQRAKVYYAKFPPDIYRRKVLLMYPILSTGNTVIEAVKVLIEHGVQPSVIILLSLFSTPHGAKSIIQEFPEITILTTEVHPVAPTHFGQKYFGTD
Chain of UniProt Q9BRZ2 (Q9BRZ2 whole entry): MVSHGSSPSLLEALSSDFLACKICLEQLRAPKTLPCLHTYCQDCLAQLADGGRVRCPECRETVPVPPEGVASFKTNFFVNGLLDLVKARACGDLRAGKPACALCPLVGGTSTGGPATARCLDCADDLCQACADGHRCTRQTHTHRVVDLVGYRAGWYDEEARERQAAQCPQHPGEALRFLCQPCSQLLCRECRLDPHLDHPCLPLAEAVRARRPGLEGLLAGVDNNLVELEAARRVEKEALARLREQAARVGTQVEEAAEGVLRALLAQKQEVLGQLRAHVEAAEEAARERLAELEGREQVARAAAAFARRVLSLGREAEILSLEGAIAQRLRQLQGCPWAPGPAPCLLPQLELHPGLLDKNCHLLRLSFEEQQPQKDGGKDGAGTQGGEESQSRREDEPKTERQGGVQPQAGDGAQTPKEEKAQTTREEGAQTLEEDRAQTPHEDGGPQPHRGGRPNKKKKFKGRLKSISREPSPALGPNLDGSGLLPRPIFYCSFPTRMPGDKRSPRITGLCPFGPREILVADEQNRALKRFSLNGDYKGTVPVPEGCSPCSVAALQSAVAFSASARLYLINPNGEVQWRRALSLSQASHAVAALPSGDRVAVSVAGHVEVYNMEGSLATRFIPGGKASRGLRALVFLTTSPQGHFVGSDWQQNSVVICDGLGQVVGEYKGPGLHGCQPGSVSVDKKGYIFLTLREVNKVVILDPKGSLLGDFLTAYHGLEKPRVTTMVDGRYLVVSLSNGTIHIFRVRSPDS
Chain of UniProt Q13495 (Q13495 whole entry): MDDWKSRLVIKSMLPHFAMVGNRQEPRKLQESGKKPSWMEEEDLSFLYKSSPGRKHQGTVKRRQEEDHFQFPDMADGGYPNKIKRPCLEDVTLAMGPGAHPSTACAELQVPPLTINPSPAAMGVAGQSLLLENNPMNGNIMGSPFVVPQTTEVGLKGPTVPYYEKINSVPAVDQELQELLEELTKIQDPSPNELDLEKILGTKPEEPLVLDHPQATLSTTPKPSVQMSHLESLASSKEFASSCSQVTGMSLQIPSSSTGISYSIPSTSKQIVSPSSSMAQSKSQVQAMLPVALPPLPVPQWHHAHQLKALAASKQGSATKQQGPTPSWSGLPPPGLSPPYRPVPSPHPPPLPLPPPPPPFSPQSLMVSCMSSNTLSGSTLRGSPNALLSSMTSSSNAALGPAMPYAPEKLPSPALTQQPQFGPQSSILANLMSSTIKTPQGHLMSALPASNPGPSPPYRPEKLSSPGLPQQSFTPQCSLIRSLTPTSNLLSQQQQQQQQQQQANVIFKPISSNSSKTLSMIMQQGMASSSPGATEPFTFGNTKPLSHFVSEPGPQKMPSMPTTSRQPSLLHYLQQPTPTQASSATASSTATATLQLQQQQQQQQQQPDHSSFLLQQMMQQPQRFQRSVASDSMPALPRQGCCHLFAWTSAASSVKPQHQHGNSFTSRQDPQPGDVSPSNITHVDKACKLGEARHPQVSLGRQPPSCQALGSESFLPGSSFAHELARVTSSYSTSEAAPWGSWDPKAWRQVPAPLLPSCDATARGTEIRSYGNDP
Chain of UniProt O43674 (O43674 whole entry): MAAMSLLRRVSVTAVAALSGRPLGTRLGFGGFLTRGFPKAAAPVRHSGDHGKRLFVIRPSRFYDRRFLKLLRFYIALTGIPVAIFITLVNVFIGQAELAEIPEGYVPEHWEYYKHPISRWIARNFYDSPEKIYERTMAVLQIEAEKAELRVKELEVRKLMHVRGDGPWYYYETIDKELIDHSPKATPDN
Chain of UniProt Q8NHZ8 (Q8NHZ8 whole entry): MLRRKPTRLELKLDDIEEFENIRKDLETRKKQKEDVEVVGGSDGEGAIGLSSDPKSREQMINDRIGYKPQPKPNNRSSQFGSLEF

Target	thermal stability z-score (lipoamide; [1])	thermal stability z-score (lipoamide; arsenate co-treatment: none)	thermal stability z-score (potassium arsenate)
AKAP2	1.28	0.638	-0.839
RPAP3 (UniProt Q9H6T3)	-0.367	-0.207	0.38
ARMC8 (UniProt Q8IUR7)	-0.0708	-0.238	-0.668
DNA2 (UniProt P51530)	-0.0519	-0.0211	-0.131
CXADR (UniProt P78310)	0.11	0.273	0.0224
SYF2 (UniProt O95926)	1.83	0.837	-0.951
VPS13A (UniProt Q96RL7)	1.04	0.949	0.945
SLC25A3 (UniProt Q00325)	0.802	0.951	0.572
ADAM17 (UniProt P78536)	-1.11	-0.994	-0.966
LAMB3 (UniProt Q13751)	-1.92	-1.59	0.108
PEX1 (UniProt O43933)	-0.254	-0.723	-0.382
C20ORF24 (UniProt Q9BUV8)	0.799	0.361	-0.477
ARHGEF16 (UniProt Q5VV41)	0.251	-0.0771	-0.201
UIMC1 (UniProt Q96RL1)	-0.168	0.424	0.872
PTPN1 (UniProt P18031)	-1.02	-0.578	0.228
QARS	-0.515	-0.706	-0.289
STRAP (UniProt Q9Y3F4)	0.312	0.0419	-0.875
TNPO1 (UniProt Q92973)	-1.32	-1.31	1.98
FAM210A (UniProt Q96ND0)	-0.412	-0.508	-0.189
FIS1 (UniProt Q9Y3D6)	-0.114	0.595	-0.678
LTN1 (UniProt O94822)	0.0185	0.0878	0.0334
FANCA (UniProt O15360)	-0.0907	-0.00129	-0.103
C4BPA (UniProt P04003)	-5.7	-5.12	1.08
PUF60 (UniProt Q9UHX1)	0.11	0.816	0.789

Target	thermal stability z-score (lipoamide; [1])	thermal stability z-score (lipoamide; arsenate co-treatment: none)	thermal stability z-score (potassium arsenate)
HNRNPH3 (UniProt P31942)	-0.175	0.0351	-0.243
JAK1 (UniProt P23458)	-0.359	0.296	0.123
ANKRD50 (UniProt Q9ULJ7)	-0.124	0.078	0.0328
SPNS1 (UniProt Q9H2V7)	-0.826	0.677	0.547
UPRT (UniProt Q96BW1)	-0.0247	-0.292	0.289
LYSMD2 (UniProt Q8IV50)	1.24	0.886	1.46
PDIA3 (UniProt P30101)	-3.75	-2.98	0.907
NXN (UniProt Q6DKJ4)	0.0765	0.152	0.314
ESYT2 (UniProt A0FGR8)	-0.934	-0.479	-0.306
PSMC6 (UniProt P62333)	0.467	0.219	-0.23
RNF14 (UniProt Q9UBS8)	-1.18	0.11	0.158
LYPLAL1 (UniProt Q5VWZ2)	0.152	0.0691	0.447
TXNL4A (UniProt P83876)	0.343	-0.0818	-0.461
TSPAN13 (UniProt O95857)	0.229	0.441	-0.0847
OBSL1 (UniProt O75147)	-0.175	-0.0603	-0.307
PALMD (UniProt Q9NP74)	1.1	0.987	1.81
MAPK7 (UniProt Q13164)	0.0307	0.141	0.334
TRIM56 (UniProt Q9BRZ2)	-0.0694	-0.839	-3.98
SETD1A (UniProt O15047)	0.233	-0.516	-0.413
ABHD12 (UniProt Q8N2K0)	-0.435	-0.517	-0.351
APOO (UniProt Q9BUR5)	0.803	0.64	0.23
DNAJB2 (UniProt P25686)	0.422	0.0161	0.142
NDUFB5 (UniProt O43674)	-0.958	-0.151	0.226
VPS35 (UniProt Q96QK1)	0.247	0.378	-0.541

Target	thermal stability z-score (lipoamide; [1])	thermal stability z-score (lipoamide; arsenate co-treatment: none)	thermal stability z-score (potassium arsenate)
GALNS (UniProt P34059)	0.346	0.41	0.274
FLOT2 (UniProt Q14254)	0.746	0.534	-1.32
CNNM3 (UniProt Q8NE01)	-0.728	0.192	-0.561
TMEM205 (UniProt Q6UW68)	1.01	0.394	1.79
PSME4 (UniProt Q14997)	-0.196	-0.198	-0.412
CAPNS1 (UniProt P04632)	0.532	0.582	0.0106
BACH1 (UniProt O14867)	-0.551	-0.333	0.169
MCAM (UniProt P43121)	0.197	-0.281	0.512
CDC26 (UniProt Q8NHZ8)	1.32	0.534	0.691
TMEM55B (UniProt Q86T03)	0.572	0.963	0.592
PIGA (UniProt P37287)	0.843	0.283	0.147
MAMLD1 (UniProt Q13495)	0.0249	0.146	0.345
MIER1 (UniProt Q8N108)	1.22	1.38	0.0984
IPO4 (UniProt Q8TEX9)	-0.55	-0.394	0.0408
TOB1 (UniProt P50616)	-1.37	-0.305	0.159
POLR1A (UniProt O95602)	0.371	-0.00373	-2.59
ACADSB (UniProt P45954)	0.39	0.509	0.00788
LTV1 (UniProt Q96GA3)	0.231	-0.172	1.01
OTUD7B (UniProt Q6GQQ9)	0.194	0.173	0.0572
SLC38A5 (UniProt Q8WUX1)	0.333	-0.181	-0.311
PREPL (UniProt Q4J6C6)	0.836	0.783	-0.177
CSTF1 (UniProt Q05048)	-0.533	0.0516	-1.45
TBL1X (UniProt O60907)	0.835	-0.0254	0.341
MYO5A (UniProt Q9Y4I1)	0.351	0.43	0.118

— the supplement of paper PMC12463676, “Small-molecule dissolution of stress granules by redox modulation benefits ALS models” (Nature Chemical Biology, 2025)
